Test results from patent publication US6333447A, “Transgenic model of heart failure” (The General Hospital Corporation, priority 1996, dated 2001).

Tests used:
[1] = tested on: transgenic (Gsα overexpressing) and control mice; assay: M-mode echocardiography and ECG during graded intravenous infusion of sympathomimetic amines in anesthetized mice
[2] = tested on: transgenic (Gsα overexpressing) and wild-type control mice; assay: Left ventricular contractility (LV dP/dt) by Millar micromanometer with heart rate held constant by pacing
[3] = tested on: rats; settings: infusion for several weeks; cited from earlier work
[4] = tested on: mice; settings: chronic administration; cited from earlier work
[5] = TG mice, isoproterenol infusion 0.005 μg/kg/min
[6] = TG mice, isoproterenol infusion 0.01 μg/kg/min
[7] = TG mice, isoproterenol infusion 0.02 μg/kg/min
[8] = TG mice, isoproterenol infusion 0.02 μg/kg/min, listed as Isoproterenol
[9] = control mice, isoproterenol infusion 0.01 μg/kg/min
[10] = control mice, isoproterenol infusion 0.02 μg/kg/min
[11] = control mice, isoproterenol infusion 0.02 μg/kg/min, listed as Isoproterenol
[12] = control mice, isoproterenol infusion 0.04 μg/kg/min
[13] = TG mice, norepinephrine infusion 0.05 μg/kg/min
[14] = TG mice, norepinephrine infusion 0.1 μg/kg/min
[15] = TG mice, norepinephrine infusion 0.2 μg/kg/min
[16] = TG mice, norepinephrine infusion 0.2 μg/kg/min, listed as Norepinephrine
[17] = control mice, norepinephrine infusion 0.1 μg/kg/min
[18] = control mice, norepinephrine infusion 0.2 μg/kg/min
[19] = control mice, norepinephrine infusion 0.2 μg/kg/min, listed as Norepinephrine
[20] = control mice, norepinephrine infusion 0.4 μg/kg/min

CC(C)NCC(O)c1ccc(O)c(O)c1 (centres unmarked) [isoproterenol]
Ejection Fraction [1, 5]: 80.6 ± 3.2%
Fractional Shortening [1, 5]: 42.5 ± 3.2%
Heart Rate [1, 5]: 369 ± 12 beats/min
LVID end-diastole [1, 5]: 3.5 ± 0.3 mm
LVID end-systole [1, 5]: 2.0 ± 0.1 mm
Ejection Fraction [1, 6]: 89.5 ± 2.6%
Fractional Shortening [1, 6]: 53.5 ± 3.5%
Heart Rate [1, 6]: 389 ± 10 beats/min
LVID end-diastole [1, 6]: 3.4 ± 0.2 mm
LVID end-systole [1, 6]: 1.6 ± 0.1 mm
Ejection Fraction [1, 7]: 96±1%
Fractional Shortening [1, 7]: 68±4%
Heart Rate [1, 7]: 433 beats/min
LVID end-diastole [1, 7]: 3.1 mm
LVID end-systole [1, 7]: 1.0 ± 0.1 mm
Ejection Fraction [1, 8]: 96.3 ± 1.3%
Fractional Shortening [1, 8]: 67.9 ± 4.2%
Ejection Fraction [1, 9]: 76.7 ± 1.2%
Fractional Shortening [1, 9]: 38.5 ± 1.1%
Heart Rate [1, 9]: 213 ± 16 beats/min
LVID end-diastole [1, 9]: 4.0 ± 0.1 mm
LVID end-systole [1, 9]: 2.4 ± 0.0 mm
Ejection Fraction [1, 10]: 86±3%
Fractional Shortening [1, 10]: 48±3%
Heart Rate [1, 10]: 236 ± 8 beats/min
LVID end-diastole [1, 10]: 3.9 ± 0.1 mm
LVID end-systole [1, 10]: 2.0 mm
Ejection Fraction [1, 11]: 85.8%
Fractional Shortening [1, 11]: 48.3%
Ejection Fraction [1, 12]: 94.1 ± 2.0%
Fractional Shortening [1, 12]: 62.8 ± 5.7%
Heart Rate [1, 12]: 289 beats/min
LVID end-diastole [1, 12]: 3.6 ± 0.1 mm
LVID end-systole [1, 12]: 1.3 ± 0.2 mm
Left ventricular end-diastolic dimensions ([1]; increasing doses of isoproterenol, both groups): decreased dose-dependently
Increase of left ventricular contractility (LV dP/dt) from baseline ([2]; transgenic mice, heart rate held constant (9.0-0.6 Hz), isoproterenol 0.02 μg/kg/min): 33±2%
Increase of left ventricular contractility (LV dP/dt) from baseline ([2]; wild-type control mice, heart rate held constant (8.0±0.0 Hz), isoproterenol 0.02 μg/kg/min, baseline 6923±281 mm Hg/sec): 13±2%
Myocardial pathology [3]: myocardial hypertrophy with cellular necrosis and replacement fibrosis
Hypertrophic response [4]: enhanced hypertrophic responses

NC[C@H](O)c1ccc(O)c(O)c1 [norepinephrine]
Ejection Fraction [1, 13]: 79.8 ± 4.0%
Fractional Shortening [1, 13]: 41.9 ± 3.9%
Heart Rate [1, 13]: 320 ± 13 beats/min
LVID end-diastole [1, 13]: 3.6 ± 0.1 mm
LVID end-systole [1, 13]: 2.1 ± 0.1 mm
Ejection Fraction [1, 14]: 88.3 ± 3.8%
Fractional Shortening [1, 14]: 52.2 ± 4.8%
Heart Rate [1, 14]: 322 ± 16 beats/min
LVID end-diastole [1, 14]: 3.6 ± 0.2 mm
LVID end-systole [1, 14]: 1.7 ± 0.2 mm
Ejection Fraction [1, 15]: 93±2%
Fractional Shortening [1, 15]: 59±4%
Heart Rate [1, 15]: 341 ± 18 beats/min
LVID end-diastole [1, 15]: 3.6 mm
LVID end-systole [1, 15]: 1.5 ± 0.2 mm
Ejection Fraction [1, 16]: 92.8 ± 2.1%
Fractional Shortening [1, 16]: 59.4 ± 4.1%
Ejection Fraction [1, 17]: 78.3 ± 0.1%
Fractional Shortening [1, 17]: 39.9 ± 0.5%
Heart Rate [1, 17]: 241 ± 27 beats/min
LVID end-diastole [1, 17]: 4.0 ± 0.1 mm
LVID end-systole [1, 17]: 2.4 ± 0.1 mm
Ejection Fraction [1, 18]: 85±3%
Fractional Shortening [1, 18]: 47±3%
Heart Rate [1, 18]: 252 ± 33 beats/min
LVID end-diastole [1, 18]: 4.1 ± 0.1 mm
LVID end-systole [1, 18]: 2.2 mm
Ejection Fraction [1, 19]: 84.8%
Fractional Shortening [1, 19]: 47.0%
Ejection Fraction [1, 20]: 92.3 ± 2.0%
Fractional Shortening [1, 20]: 58.2 ± 3.9%
Heart Rate [1, 20]: 272 ± 44 beats/min
LVID end-diastole [1, 20]: 4.0 ± 0.1 mm
LVID end-systole [1, 20]: 1.7 ± 0.2 mm
Chronotropic effect ([1]; norepinephrine infusion, either group (control or transgenic)): no significant chronotropic effect
Effect on left ventricular end-diastolic dimensions ([1]; norepinephrine infusion, transgenic or control group): no effect
Increase of left ventricular contractility (LV dP/dt) from baseline ([2]; transgenic mice, heart rate held constant (8.3±1.2 Hz), norepinephrine 0.1 μg/kg/min): 65±8%
Increase of left ventricular contractility (LV dP/dt) from baseline ([2]; wild-type control mice, heart rate held constant (6.0±0.0 Hz), norepinephrine 0.1 μg/kg/min, baseline 7292±461 mm Hg/sec): 28±4%
